Assay results reported in patent publication US20110028554A1, “PHARMACEUTICAL COMPOSITIONS COMPRISING DIIODOTHYRONINE AND THEIR THERAPEUTIC USE” (UNIVERSITE JOSEPH FOURIER, priority 2007, published 2011).
“Also recorded” adds a separate entry of the source.

What was measured:
[1] = Growth rate (body weight) of Wistar rats with subcutaneous continuous-release pellet; type: in vivo
Protocol: (§1) Adult male rat bred in the animal room facilities of Laboratory of Fundamental and Applied. Bioenergetics (Wistar strain) or purchased from Charles-River Laboratories, Domaine des oncins, L'ARBRESLE France [(genetically obese normoglycemic (Zucker or Fa/Fa) or diabetic (ZDF)] were caged individually in stainless steel hanging cages and maintained in a 22° C., 50±10% relative humidity and 12 h:12 h light:dark environment. All animals were fed ad libitum with a standard rat chow (Safe A04, Villemoisson, France) and tap water. Body mass and food intake were recorded twice/thrice a week and fresh food was provided, at the same time to ensure minimal disturbance to the animals' food, behavior.
(§2) Eight-week old rats (300 g±10 g) were anesthetized by simultaneous intraperitoneal injection of diazepam 4 mg/kg and ketamine 100 mg/kg. In order to maintain body temperature during the surgery (10 min), animals were placed on a warm blanket. After interscapular shaving, a small incision of 0.5 cm of the skin allows the subcutaneous implantation of a small pellet (containing rT3 or 3′,3-T2) with a 10-gauge precision trochar. The pellets, manufactured by Innovative Research of America (Sarasota, Fla., USA) are constituted of a biodegradable matrix that effectively and continuously release the active product in the animal.
(§3) 3-5 diiodothyronine (3-5 T2) or 3-3′diiodothyronine (3-3′ T2) were used at different doses (5, 0.5, or 0.1 mg/pellet) were implanted in order to provide a continuous and constant drug delivery over 60 days (which represents 25 μg, 2.5 μg or 0.5 μg/day/100 g BW).

[2] = Food intake of Wistar rats; type: in vivo
Protocol: as §1, §2, §3

[3] = Indirect calorimetry (energy expenditure, respiratory quotient) in Wistar rats; type: in vivo; conditions: low dosage 2.5 μg/100 g BW
Source text: Energy expenditure as well as the nature of substrate oxidized (carbohydrates or lipids) were investigated by indirect calorimetry. This principle is based on the determinations of CO2, release (VCO2) and O2 consumption (VO2) by each animal. It assumes that O2 is entirely involved in substrate oxidation in the respiratory chain (leading to water production) while CO2 release is related to substrate decarboxylation (in the Kreb's cycle). These measurements allow assessing energy expenditure (EE) and respiratory quotient ([…], RQ). EE represent the absolute energy dissipation during rest and activity. RQ is a relative measurement indicating the ratio of carbohydrate versus lipid involved in oxidative pathway. A ratio of 1.0 indicates exclusive carbohydrate oxidation while a ratio of 0.7 indicates exclusive lipid oxidation. Each value between these two extreme values indicates the relative proportion of each substrate (of note protein oxidation was not evaluated). As an example, RQ approaches 0.7 during fasting, indicating lipid oxidation, conversely after feeding RQ increases close to 1 indicating carbohydrate oxidation resulting from food intake and blood insulin rise. Likewise, animals fed high-carbohydrate diets have higher RQs than those fed high-fat diets.
The indirect calorimetry system (Panlab, Barcelona, Spain) consists of cages, pumps, flow controllers, valves, and analyzers. […]

[4] = Body composition of genetically obese Zucker rats; type: in vivo, Zucker (Fa/Fa) rats; conditions: FIG. 9, high dosage 25 μg/100 g BW
Source text: At the end of the experimental period, animals were sacrificed by decapitation, in order to avoid the well-known effects of general anesthetics on mitochondrial metabolism. Blood, samples were immediately collected and plasma was frozen for subsequent determination of serum metabolites and hormones. Liver, muscles and fat depots were quickly excised and weighed. Liver median lobe was rapidly freeze-clamped. Muscles (plantaris, soleus and gastrocnemius) were frozen in isopentane precooled in liquid nitrogen. Mesenteric fat consisted, of adipose tissue surrounding the gastro-intestinal tract from the gastro-oesophageal sphincter to the end of the rectum with special care taken in distinguishing and removing the pancreas. Retroperitoneal fat pad was taken as the distinct depot behind each kidney along the lumbar muscles. Epididymal fat consisted, of adipose tissue on top of the epididymis. For subcutaneous depot measurement, a rectangular piece of skin was taken on the right side of each animal from the median line of the abdomen between the spine and the right hip to the first rib. Interscapular brown adipose tissue was removed and dissected free from adjacent muscles and white adipose tissue. The heart ventricles, the right kidney and the spleen were also excised, weighed and frozen.

[5] = Blood parameters (glucose, HbA1c, insulin, cholesterol, triglycerides) in ZDF rats; type: in vivo, Zucker Diabetic fatty (ZDF) rats; conditions: high dosage 25 μg/100 g BW
Protocol: Rats were genetically obese normoglycemic (Zucker or Fa/Fa), 10-11 week-old diabetic rats (ZDF) or genetic non-overweight diabetic (type 2 diabetes) rats (Goto-Kakizaki (GK) model).
The day of the study, after a fasted period overnight (18 h), blood samplings will be taken in awake rats from the tail vein.
The following biochemical parameters were analyzed: glycemia, insulinemia, HbA1c, TG and Cholesterol.
Insulin levels were determined with commercial kits (Linco Research).
Glucose and 3-hydroxybutyrate (3-HB) were measured, enzymatically and non esterified fatty acid (NEFA) by colorimetric assay (Wako Chemicals).
Triglycerides and cholesterol were measured by classical routine automate apparatus.

liver mitochondria = test: Oxidative phosphorylation efficiency (ATP/O) in liver mitochondria of treated Wistar rats; type: in vivo; conditions: 3 weeks continuous subcutaneous 250 μg/kg, fatty acids (palmitoyl-, octanoyl-) and succinate as substrates
Protocol: Effect of 3,5-T2 on oxidative phosphorylation efficiency investigated in liver mitochondria of Wistar rats isolated after 3 weeks of continuous treatment administered subcutaneously (250 μg/kg).
FIGS. 20A, 20B, 20C and 20D represent the ratio between ATP synthesis (nmol/min/g prot) and liver mitochondrial oxygen consumption (nmol/min/g prot) (P/O) as a function of liver mitochondrial oxygen consumption.
All measurements were performed using mitochondria (1.0 mg mitochondrial protein/ml) incubated with various substrates: • GM: glutamate/malate (5 mM/2.5 mM) • Palm: palmitoyl carnitine (55 μM) • Octa: octanoyl carnitine (100 μM) and • Succ+Rot: succinate/rotenone (5 mM/5 μM)
ATP/O ratios with 5 mM glutamate/2.5 mM malate/5 mM succinate or octanoyl-carnitine (100 μM) as respiratory substrates were determined from the ATP synthesis rate (JATP) versus respiratory rate JO2 with an ADP regenerating system based, on hexokinase (EC 2.7.1.1) plus glucose. JATP and JO2 were measured as described above in a medium containing 125 mM KCl, 1 mM EGTA, 5 mM Tris-Pi, 20 mM Tris-HCl, 0.1% fat free BSA (pH 7.2). JATP was determined from glucose 6-phosphate formation in presence of 20 mM glucose, 1 mM MgCl2, and 125 μM ATP. JO2 and JATP were modulated by addition of increasing concentrations of hexokinase (Nogueira et al, J Bioenerg Biomemb., 34:55-66, 2002).

With `N[C@@H](Cc1cc(I)c(Oc2ccc(O)cc2)c(I)c1)C(=O)O` [3,5-T2, 3,5-diiodothyronine] the “Growth rate (body weight gain) vs placebo” value ([1]; high dosage 25 μg/100 g BW) was “did not show similar weight gain; also recorded: a biphasic curve was observed with a weight gain between the 10th and the 15th day”, the “Growth rate (body weight gain) vs placebo” value ([1]; low dosage 2.5 μg/100 g BW) was “the body mass did not change” and the “Food intake vs placebo” value ([2]; high dosage 25 μg/100 g BW) was “a clear increase was observed”. The “Food intake vs placebo” value ([2]; low dosage 2.5 μg/100 g BW) was “almost not affect”, the “Respiratory quotient (RQ) vs placebo” value [3] was “lower than RQ with placebo treatment during the day and the first part of the night” and the “Absolute values of fat deposit, all localizations, vs placebo” value [4] was “significantly lower”. For the same compound, the “Brown adipose tissue vs placebo” value [4] was “significantly increased”, the “Muscle mass vs placebo” value [4] was “not affected” and the “Plasmatic cholesterol at the end of the treatment vs placebo” value [5] was “significantly lower”. For the same compound, the “Plasmatic triglycerides at the end of the treatment vs placebo” value [5] was “not different between the two groups”, the “Glycated hemoglobin (HbA1c)” value ([5]; 4 weeks) was “significant decrease” and the Plasmatic insulin concentration ([5]; 4 weeks) was “maintenance of insulin concentration at a high level; also recorded: increasing plasmatic insulin concentration”. For the same compound, the Plasmatic glucose concentration ([5]; from week 1 over 4 weeks) was “dramatic decrease; also recorded: decreasing glucose concentration” and the “Efficiency of oxidative phosphorylation (ATP/oxygen ratio)” value (liver mitochondria) was “lowers the yield of ATP synthesis”.
